This passage reports IC50, Emax and melting point results from patent US9873702B2, “Heterocyclic compounds as biogenic amine transport modulators” (Southern Research Institute, priority 2014, dated 2018).

Read-outs that look alike come from different tables or passages of the source.

The target of data set [1] is dopamine transporter (DAT) (Rattus norvegicus, UniProt P23977). Nature of the data set: Dopamine reuptake ([^3H]dopamine uptake) inhibition in rat brain synaptosomes. The note with it: for Emax: read-out: DA Uptake Emax (% I ± SD).
[2] abbreviates: DA Uptake EC50 (nM ± SD), rat caudate synaptosomes, 5 nM [^3H]dopamine, 15 min, 25° C., three experiments pooled.

Chain of dopamine transporter (DAT) (P23977 whole entry): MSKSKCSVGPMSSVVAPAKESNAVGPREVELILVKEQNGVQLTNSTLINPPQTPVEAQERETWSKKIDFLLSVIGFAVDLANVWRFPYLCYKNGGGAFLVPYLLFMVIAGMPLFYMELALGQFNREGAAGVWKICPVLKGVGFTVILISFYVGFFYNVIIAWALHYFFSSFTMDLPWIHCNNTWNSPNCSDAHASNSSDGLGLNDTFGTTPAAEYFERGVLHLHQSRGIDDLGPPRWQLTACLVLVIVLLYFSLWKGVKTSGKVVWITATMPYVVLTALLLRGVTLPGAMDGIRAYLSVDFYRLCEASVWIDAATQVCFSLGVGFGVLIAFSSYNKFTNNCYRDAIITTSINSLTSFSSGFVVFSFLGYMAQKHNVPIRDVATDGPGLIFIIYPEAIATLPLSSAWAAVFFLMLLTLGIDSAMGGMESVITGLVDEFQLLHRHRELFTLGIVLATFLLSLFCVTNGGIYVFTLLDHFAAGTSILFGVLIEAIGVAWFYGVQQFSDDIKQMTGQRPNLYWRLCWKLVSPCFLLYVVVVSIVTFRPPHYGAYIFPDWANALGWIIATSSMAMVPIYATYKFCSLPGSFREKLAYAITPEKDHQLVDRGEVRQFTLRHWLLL

With `Cc1nc(C)c(-c2nc(NCC(c3ccccc3)c3ccccc3)c3ccccc3n2)s1` [compound 54, 2-(2,4-Dimethylthiazol-5-yl)-N-(2,2-Diphenylethyl)Quinazolin-4-Amine], the melting point (in general, the temperature, or range, at which the solid turns liquid) was 78 °C. Further, in data set [1] (setting [2]), half-maximal inhibition (IC50) required 72 ± 12 nM. In data set [1], the maximal effect (Emax) (in general, the greatest response seen or fitted, relative to the assay's reference) came out at 80 ± 2%.
`CN(C)c1ccc(-c2nc(NCCC(c3ccccc3)c3ccccc3)c3ccccc3n2)cn1` [compound 93, 2-(6-(Dimethylamino)Pyridin-3-yl)-N-(3,3-Diphenylpropyl)Quinazolin-4-Amine]: the melting point came to 195 °C. In addition, in data set [1] (setting [2]), the IC50 (as a rule, the midpoint of a concentration-inhibition curve) is 29 ± 4 nM. Further, the Emax in data set [1] was 76 ± 2%.
In turn, `c1ccc(C(CNc2nc(-c3ccc4cnccc4c3)nc3ccccc23)c2ccccc2)cc1` [compound 133, N-(2,2-Diphenylethyl)-2-(Isoquinolin-6-yl)Quinazolin-4-Amine] showed a melting point of 242 to 244 °C. This compound also displayed a half-inhibitory concentration (IC50) in data set [1] (setting [2]) of 194 ± 30 nM. In addition, in data set [1], the Emax came out at 70 ± 2%.
In turn, `c1ccc(C(CNc2nc(-c3ccc4ncsc4c3)nc3ccccc23)c2ccccc2)cc1` [compound 70, 2-(Benzo [D]Thiazol-6-yl)-N-(2,2-Diphenylethyl)Quinazolin-4-Amine] returned a melting point of 198 °C. The same compound registered an IC50 in data set [1] (setting [2]) of 45 ± 15 nM. In addition, the Emax in data set [1] was found to be 67 ± 4%.
Taken in the same sequence, the figures for `c1ccc(C(CNc2nc(-c3ccc4nccnc4c3)nc3ccccc23)c2ccccc2)cc1` [compound 56, N-(2,2-Diphenylethyl)-2-(Quinoxalin-6-yl)Quinazolin-4-Amine] were 198 °C, 89 ± 13 nM and 70 ± 2%.
As for `c1ccc(C(CNc2nc(-c3ccc4nccn4c3)nc3ccccc23)c2ccccn2)cc1` (stereo not drawn) [compound 94, 2-(Imidazo[1,2-A]Pyridin-6-yl)-N-(2-Phenyl-2-(Pyridin-2-yl)Ethyl)Quinazolin-4-Amine], the melting point came out at 238 °C. The compound also returned an IC50 in data set [1] (setting [2]) of 36 ± 4 nM. Further, the Emax in data set [1] stood at 69 ± 1%.
Taken in the same sequence, the figures for `CS(=O)(=O)Nc1ccc(-c2nc(NCC(c3ccccc3)c3ccccc3)c3ccccc3n2)cn1` [compound 138, N-(5-(4-((2,2-Diphenylethyl)Amino)Quinazolin-2-yl)Pyridin-2-yl)Methanesulfonamide] were 210 °C, 26 ± 3 nM and 63 ± 1%.
The compound `Cn1ncc2cc(-c3nc(NCC(c4ccccc4)c4ccccc4)c4ccccc4n3)ccc21` [compound 67, N-(2,2-Diphenylethyl)-2-(1-Methyl-1H-Indazol-5-yl)Quinazolin-4-Amine] registered a melting point of 200 °C. This compound also came in with an IC50 in data set [1] (setting [2]) of 43 ± 9 nM. Further, in data set [1], the Emax was 66 ± 2%.
On the same counts, the results for `CCOC(=O)c1cn2cc(-c3nc(NCC(c4ccccc4)c4ccccc4)c4ccccc4n3)ccc2n1` [compound 113, Ethyl 6-(4-((2,2-Diphenylethyl)Amino)Quinazolin-2-yl)Imidazo[1,2-A]Pyridine-2-Carboxylate] are 204 °C, 74 ± 9 nM and 64 ± 1%.
Taken in the same sequence, the figures for `COc1ccc2nc(-c3cnc(N(C)C)nc3)nc(NCC(c3ccccc3)c3ccccc3)c2c1` [compound 60, 2-(2-(Dimethylamino)Pyrimidin-5-yl)-N-(2,2-Diphenylethyl)-6-Methoxyquinazolin-4-Amine] were 198 °C, 947 ± 402 nM and 55 ± 6%.
Taken in the same sequence, the figures for `Cc1cc2nccn2cc1-c1nc(NC(Cc2ccccc2)c2ccccc2)c2ccccc2n1` (stereo not drawn) [compound 172, N-(1,2-Diphenylethyl)-2-(7-Methylimidazo[1,2-A]Pyridin-6-yl)Quinazolin-4-Amine] were 87 to 89 °C, 5 ± 1.1 nM and 76 ± 2%.
On to `Nc1ncc(-c2nc(NCC(c3ccccc3)C3CCCCC3)c3ccccc3n2)cn1` (stereo not drawn) [compound 101, 2-(2-Aminopyrimidin-5-yl)-N-(2-Cyclohexyl-2-Phenylethyl)Quinazolin-4-Amine], for which the melting point stood at 105 °C. For the same compound, in data set [1] (setting [2]), the IC50 amounted to 79 ± 19 nM. Also, the Emax in data set [1] was 75 ± 3%.
Turning to `Cl.c1ccc(C(CNc2nc(-c3ccc4nccn4c3)nc3cc(OCCCN4CCOCC4)ccc23)c2ccccc2)cc1` [compound 125, N-(2,2-Diphenylethyl)-2-(Imidazo[1,2-A]Pyridin-6-yl)-7-(3-Morpholinopropoxy)Quinazolin-4-Amine Hydrochloride], the melting point came out at 232 °C. Also, in data set [1], inhibition was half-maximal at 75 ± 25 nM (IC50) and the Emax came to 52 ± 3%.
The compound `COc1cc2nc(-c3cncnc3)nc(NCC(c3ccccc3)c3ccccc3)c2cc1OC` [compound 25, N-(2,2-Diphenylethyl)-6,7-Dimethoxy-2-(Pyrimidin-5-yl)Quinazolin-4-Amine] yielded a melting point of 93 °C. Further, in data set [1] (setting [2]), inhibition was half-maximal at 1090 nM (IC50). For the same compound, the Emax in data set [1] is < 100%.
On the same counts, the results for `COc1cc2nc(-c3cnc(N(C)C)nc3)nc(NCC(c3ccccc3)c3ccccc3)c2cc1OC` [compound 23, 2-(2-(Dimethylamino)Pyrimidin-5-yl)-N-(2,2-Diphenylethyl)-6,7-Dimethoxyquinazolin-4-Amine] are 92 °C, 720 nM and 100%.
As for `COc1cc2nc(-c3ccc4[nH]ccc4c3)nc(NCC(c3ccccc3)c3ccccc3)c2cc1OC` [compound 24, N-(2,2-Diphenylethyl)-2-(1H-indol-5-yl)-6,7-Dimethoxyquinazolin-4-Amine], the melting point was found to be 117 °C. The same compound came in with an IC50 in data set [1] (setting [2]) of 46 nM. The Emax in data set [1] was 100%.
Taken in the same sequence, the figures for `Cc1nc2ccc(-c3nc(NCC(c4ccccc4)c4ccccc4)c4ccccc4n3)cn2c1C` [compound 91, 2-(2,3-Dimethylimidazo[1,2-A]Pyridin-6-yl)-N-(2,2-Diphenylethyl)Quinazolin-4-Amine] were 232 °C, 25 ± 3 nM and 72 ± 2%.
Taken in the same sequence, the figures for `Cc1cc2nccn2cc1-c1nc(NCC(C)(c2ccccc2)c2ccccc2)c2ccccc2n1` [compound 178, N-(2,2-Diphenylpropyl)-2-(7-Methylimidazo[1,2-A]Pyridin-6-yl)Quinazolin-4-Amine] were 275 to 277 °C, 5 ± 1.1 nM and 76 ± 3%.
On the same counts, the results for `c1ccc(C(CNc2nc(-n3cccn3)nc3ccccc23)c2ccccc2)cc1` [compound 51, N-(2,2-Diphenylethyl)-2-(1H-Pyrazol-1-yl)Quinazolin-4-Amine] are 191 °C, 510 nM and < 100%.
For the compound `CN(C)Cc1c[nH]c2ccc(-c3nc(NCC(c4ccccc4)c4ccccc4)c4ccccc4n3)cc12` [compound 111, 2-(3-((Dimethylamino)methyl)-1H-Indol-5-yl)-N-(2,2-Diphenylethyl)Quinazolin-4-Amine], the melting point is 182 °C. The IC50 in data set [1] (setting [2]) came to 381 ± 42 nM. In addition, the Emax in data set [1] was 101 ± 2%.
In turn, `c1ccc(C(CCNc2nc(N3CCCCC3)nc3ccccc23)c2ccccc2)cc1` [compound 9, N-(3,3-Diphenylpropyl)-2-(piperidin-1-yl)quinazolin-4-amine] returned a melting point of 160 to 164 °C. The same compound came in with an IC50 in data set [1] (setting [2]) of 140 nM. In addition, the Emax in data set [1] came out at 100%.
Taken in the same sequence, the figures for `c1ccc(C(CNc2nc(-c3ccc4[nH]ccc4c3)nc3ccccc23)c2cccc(-c3ccc4[nH]ccc4c3)n2)cc1` (stereo not drawn) [compound 58, N-(2-(6-(1H-Indol-5-yl)Pyridin-2-yl)-2-Phenylethyl)-2-(1H-Indol-5-yl)Quinazolin-4-Amine] were 151 °C, 478 ± 154 nM and 65 ± 5%.
Take `c1ccc(C(CNc2nc(-c3ccc4[nH]ccc4c3)nc3ccccc23)c2cccnc2)cc1` (stereo not drawn) [compound 130, 2-(1H-Indol-5-yl)-N-(2-Phenyl-2-(Pyridin-3-yl)Ethyl)Quinazolin-4-Amine]: the melting point was 109 to 111 °C. The IC50 in data set [1] (setting [2]) amounted to 40 ± 5 nM. In addition, the Emax in data set [1] was found to be 74 ± 2%.
`c1ccc2c(NCC(c3ccncc3)c3ccncc3)nc(N3CCc4[nH]ccc4C3)nc2c1` [compound 174, N-(2,2-Di(pyridin-4-yl)Ethyl)-2-(6,7-Dihydro-1H-Pyrrolo[3,2-C]Pyridin-5(4H)-yl)Quinazolin-4-Amine]: the melting point lay within 224 to 226 °C. Besides, the IC50 in data set [1] (setting [2]) turned out to be 31 ± 10 nM. The Emax in data set [1] turned out to be 88 ± 4%.
With `c1ccc(C(CNc2nc(-c3cccc4ncccc34)nc3ccccc23)c2ccccc2)cc1` [compound 49, N-(2,2-Diphenylethyl)-2-(Quinolin-5-yl)Quinazolin-4-Amine], the melting point came to 207 °C. Moreover, in data set [1] (setting [2]), the IC50 was found to be 130 ± 16 nM. In data set [1], the Emax stood at 73 ± 2%.
For the compound `Nc1ncc(-c2nc(NCC(c3ccccc3)c3ccccc3)c3ccccc3n2)cn1` [compound 44, 2-(2-Aminopyrimidin-5-yl)-N-(2,2-Diphenylethyl)Quinazolin-4-Amine], the melting point was 148 °C. In data set [1] (setting [2]), this compound returned an IC50 of 79 ± 19 nM. The Emax in data set [1] stood at 81 ± 3%.
For `CC(C)C(CNc1nc(-c2ccc3nccn3c2)nc2ccccc12)c1ccccc1` (stereo not drawn) [compound 168, 2-(Imidazo[1,2-A]Pyridin-6-yl)-N-(3-Methyl-2-Phenylbutyl)Quinazolin-4-Amine], the melting point lay in the range of 195 to 196 °C. For the same compound, the concentration for half-maximal inhibition (IC50) in data set [1] (setting [2]) is 24 ± 5 nM. Moreover, in data set [1], the Emax came to 75 ± 2%.
With `CC(C)(C)OC(=O)n1cc(-c2nc(NCC(c3ccccc3)c3ccccc3)c3ccccc3n2)c2cccnc21` [compound 73, Tert-Butyl 3-(4-((2,2-Diphenylethyl)Amino)Quinazolin-2-yl)-1H-Pyrrolo[2,3-B]Pyridine-1-Carboxylate], the melting point was determined as 105 °C. In data set [1] (setting [2]), this compound displayed an IC50 of 1310 nM. In addition, the Emax in data set [1] is < 100%.
Taken in the same sequence, the figures for `c1ccc(CCNc2nc(-c3ccc4nccn4c3)nc3ccccc23)cc1` [compound 161, 2-(Imidazo[1,2-A]Pyridin-6-yl)-N-Phenethylquinazolin-4-Amine] were 246 to 247 °C, 168 ± 22 nM and 51 ± 1%.
